In patent US8536187B2 (Gilead Sciences, Inc., priority 2008, dated 2013):

Assays:
[1] = tested on: HCV replicon in human hepatoma Huh-7 cell line; experiment: Anti-HCV replicon assay, EC50 (luciferase luminescence); type: cell-based; settings: Hepatitis C virus, Huh-7, 72 h
Procedure: (§1) The anti-HCV activity of the pyrido[3,2-d]pyrimidine derivatives of this invention was tested in a human hepatoma Huh-7 cell line harboring a HCV replicon. The assay comprised the following steps: • Step 1: compound preparation and serial dilution: serial dilution is performed in 50% DMSO in a 384-well plate. A solution containing a compound at 100-fold concentration of the starting final serial dilution concentration was prepared in 50% DMSO and added to the pre-specified wells in column 1 of a polypropylene 384-well plate. The plate was then placed on a Precision 2000 Workstation to start the serial dilution. After the serial dilution, a volume of 2 μL of the solution was transferred from the 384-well plate to a 96-well cell culture plate containing 100 μL of cell media on a Biomek FX Workstation. The DMSO concentration in the final assay condition was 0.5% after cells are added to the plate and the total volume in each well is brought to 200 μL. • Step 2: to each well of the serial dilution plate prepared above, 100 μL of cell media containing 6000 suspended Huh-7 HCV replicon cells was added with a Multidrop workstation. The plates were incubated for 3 days at 37° C. with 5% CO2. • Step 3: detection: • a) for the EC50 assay, the media in a 96-well cell culture plate was aspirated with a Biotek EL405 plate-washer. A volume of 200 μL of a solution containing a 1:1 mixture of cell-lysis buffer (Promega, Luciferase Cell Culture Lysis 5× Reagent, cat. #E1531) and luciferase substrate solution (Promega, Luciferase Assay, cat.# E4550) was added to each well of the plate with Multidrop. The plate was incubated for 30 minutes at room temperature before the luminescence signal was measured with a TopCount plate-reader. • b) for the CC50 assay, a volume of 100 μL of pre-mixed CellTiter-Glo (Promega, cat.# G7572) solution is added directly to the cell culture in each well of the plate and the luminescence signal is measured with a TopCount plate-reader after 10 minutes of incubation at room temperature.

[2] = CC50 assay (CellTiter-Glo) in Huh-7 HCV replicon cells; type: cell-based; settings: human
Procedure: as §1

CCC(=O)NS(=O)(=O)c1ccc(CNc2nc(NCC(F)(F)F)c3nc(-c4ccc(OC)c(S(C)(=O)=O)c4)ccc3n2)cc1 [Example 142, N-(4-((6-(4-methoxy-3-(methylsulfonyl)phenyl)-4-(2,2,2-trifluoroethylamino)pyrido[3,2-d]pyrimidin-2-ylamino)methyl)phenylsulfonyl) propionamide]
EC50 [1]: 250 to 2000 nM
CC50 at 3 days ([2]; Table 2, 3 days incubation): > 10000 nM

COc1ccc(-c2ccc3nc(N[C@H](C)c4ccc(-n5cncn5)cc4)nc(NC4(C(F)(F)F)CC4)c3n2)cc1S(C)(=O)=O [Example 94, N^2-((R)-1-(4-(1H-1,2,4-triazol-1-yl)phenyl)ethyl)-6-(4-methoxy-3-(methylsulfonyl)phenyl)-N^4-(1-(trifluoromethyl)cyclopropyl) pyrido[3,2-d]pyrimidine-2,4-diamine]
EC50 [1]: < 100 nM
CC50 at 3 days ([2]; Table 2, 3 days incubation): 1000 to 10000 nM

CC(C)(C)NS(=O)(=O)c1cc(F)cc(CNc2nc(NC3(C(F)(F)F)CC3)c3nc(-c4ccc(F)nc4)ccc3n2)c1 [Example 78, N-tert-butyl-3-fluoro-5-((6-(6-fluoropyridin-3-yl)-4-(1-(trifluoromethyl)cyclopropyl-amino)pyrido[3,2-d]pyrimidin-2-ylamino)methyl)benzene-sulfonamide]
EC50 [1]: 100 to 250 nM
CC50 at 3 days ([2]; Table 2, 3 days incubation): > 10000 nM

C[C@@H](Nc1nc(NC2(C(F)(F)F)CC2)c2nc(-c3ccc(F)nc3)ccc2n1)c1ccc(S(N)(=O)=O)cc1 [Example 79, 4-((R)-1-(6-(6-fluoropyridin-3-yl)-4-(1-(trifluoromethyl)cyclopropylamino)pyrido[3,2-d]pyrimidin-2-ylamino)ethyl) benzenesulfonamide]
EC50 [1]: < 100 nM
CC50 at 3 days ([2]; Table 2, 3 days incubation): > 10000 nM

NS(=O)(=O)c1cc(CNc2nc(NCC(F)(F)F)c3nc(-c4ccc(F)cc4)ccc3n2)cc(C(F)(F)F)c1 [Example 8, 3-{[6-(4-Fluoro-phenyl)-4-(2,2,2-trifluoro-ethylamino)-pyrido[3,2-d]pyrimidin-2-ylamino]-methyl}-5-trifluoromethyl-benzenesulfonamide]
EC50 [1]: 250 to 2000 nM
CC50 at 3 days ([2]; Table 1, 3 days incubation): > 25000 nM

NS(=O)(=O)c1cc(CNc2nc(NC3(C(F)(F)F)CC3)c3nc(C#CC4CC4)ccc3n2)cc(C(F)(F)F)c1 [Example 106, 3-((6-(2-cyclopropylethynyl)-4-(1-(trifluoromethyl)cyclo-propylamino)pyrido[3,2-d]pyrimidin-2-ylamino)methyl)-5-(trifluoromethyl)benzene-sulfonamide]
EC50 [1]: < 100 nM
CC50 at 3 days ([2]; Table 2, 3 days incubation): > 10000 nM

CS(=O)(=O)c1cccc(-c2ccc3nc(NCc4ccc(-n5cncn5)cc4)nc(NCC(F)(F)F)c3n2)c1 [Example 163, N^2-(4-(1H-1,2,4-triazol-1-yl)benzyl)-6-(3-(methylsulfonyl)phenyl)-N^4-(2,2,2-trifluoroethyl) pyrido[3,2-d]pyrimidine-2,4-diamine]
EC50 [1]: < 100 nM
CC50 at 3 days ([2]; Table 2, 3 days incubation): > 10000 nM

COc1ccc(-c2ccc3nc(NC(C)c4cc(F)cc(F)c4)nc(NCC(F)(F)F)c3n2)cc1S(C)(=O)=O (centres unmarked) [Example 180, N^2-(1-(3,5-difluorophenyl)ethyl)-6-(4-methoxy-3-(methylsulfonyl)phenyl)-N^4-(2,2,2-trifluoroethyl)pyrido [3,2-d]pyrimidine-2,4-diamine]
EC50 [1]: 100 to 250 nM
CC50 at 3 days ([2]; Table 2, 3 days incubation): 1000 to 10000 nM

COc1ccc(-c2ccc3nc(NCc4ccc(S(N)(=O)=O)cc4)nc(NC4(C(F)(F)F)CC4)c3n2)cc1S(C)(=O)=O [Example 28, 4-{[6-(3-Methanesulfonyl-4-methoxy-phenyl)-4-(1-trifluoromethyl-cyclopropylamino)-pyrido[3,2-d]pyrimidin-2-ylamino]-methyl}-benzenesulfonamide]
EC50 [1]: < 100 nM
CC50 at 3 days ([2]; Table 2, 3 days incubation): 1000 to 10000 nM

C[C@@H](Cn1cncn1)Nc1nc(NCC(F)(F)F)c2nc(-c3cccc(S(C)(=O)=O)c3)ccc2n1 [Example 169, N^2-((S)-1-(1H-1,2,4-triazol-1-yl)propan-2-yl)-6-(3-(methylsulfonyl)phenyl)-N^4-(2,2,2-trifluoroethyl)pyrido [3,2-d]pyrimidine-2,4-diamine]
EC50 [1]: 250 to 2000 nM
CC50 at 3 days ([2]; Table 2, 3 days incubation): > 10000 nM
